Results reported in patent US20040198738A1, “Preventives or remedies for diseaes caused by enos expression” (priority 2002, published 2004).

Columns and labels:
[1] = from treatment for Parkinson's disease in Japanese Patent Laid-Open No. 59-25323; cited from earlier work
[2] = Acute toxicity of BH4 dihydrochloride in rat, oral administration; assay type: in vivo
From the text: The active ingredient used in the present invention is most preferably (6R)-L-erythro-5,6,7,8-tetrahydrobiopterin (BH4) or a salt thereof. However, analogues thereof such as (6R, S)-5,6,7,8-tetrahydrobiopterin, 1′,2′-diacetyl-5,6,7,8-tetrahydrobiopterin, sepiapterin, 6-methyl-5,6,7,8-tetrahydropterin, 6-hydroxymethyl-5,6,7,8-tetrahydropterin, 6-phenyl-5,6,7,8-tetrahydropterin, or a salt thereof, may also be used. However, needless to say, BH4 that is a natural substance existing in an organism is preferable. […] In addition, as is clear from the description of a treatment for Parkinson's disease in Japanese Patent Laid-Open No. 59-25323, the toxicity of (6R, S)-5,6,7,8-tetrahydrobiopterin, that is, non-optically pure substance, is weak. Accordingly, this compound can also be used for the treatment in the present invention. Compounds represented by the formula (I) other than the above described compounds have almost no acute toxicity.

ApoE-KO/eNOS-Tg mice = assay: Sclerotic lesion area of aorta (Sudan III staining, image analysis) in mice fed high cholesterol diet; assay type: in vivo, mouse; conditions: BH4 10 mg/kg/day added to high cholesterol diet, FIG. 3
From the text: 37 mice (ApoE-KO/eNOS-Tg) produced in Example 10 were ablactated at the age of 4 weeks, and then fed on high cholesterol diet (1.25% cholesterol, 7.5% cacao butter, 7.5% casein, and 0.5% sodium cholate) for 12 weeks.
Thereafter, the 16-week-old mice were anesthetized with pentobarbital, and the aorta was perfused with a physiological saline solution containing 10 U/ml heparin. Thereafter, the aorta corresponding to the portion from the center of the left ventricle to the bifurcation portion of the iliac artery was excised and fixed with 4% paraformaldehyde overnight. Surrounding tissues were eliminated from the distal portion (from the aortic arch to the bifurcation portion of the iliac artery) of the excised aorta. The aorta was longitudinally opened and fixed on a dish coated with silicone, and then stained with Sudan III. The obtained light microscope image was analyzed using NIH 1.61 Imaging Software. The lesion formation area was expressed by lesion area/the total area of aorta. In the figure, * denotes p<0.0001 with respect to ApoE-KO male, and the cross denotes p<0.001 with respect to ApoE-KO female.
6 to 8 mice (ApoE-KO/eNOS-Tg) produced in Example 10 were used per group. BH4 non-administration groups were fed on the high cholesterol diet (refer to Example 10), and BH4 administration groups were fed on the high cholesterol diet to which BH4 was added at 10 mg/kg/day. […]

[3] = tested on: superoxide in plaque area of aorta of ApoE-KO/eNOS-Tg mice; assay: Production of superoxide in excised aorta (MCLA chemiluminescence); assay type: in vivo, mouse; conditions: BH4 added high cholesterol diet for 8 weeks, 12 weeks old mice; vs non-administration; FIG. 4; p<0.01
Protocol: Groups were prepared, each of which consisted of 6 to 8 mice (12 weeks old, ApoE-KO/eNOS-Tg) fed on BH4 added or BH4 non-added high cholesterol diet for 8 weeks in the same manner as in Example 12. The aorta was excised from these mice, peripheral tissues were eliminated, and the remaining portion was mounted on a black silicone dish filled with PBS with pH 7.4. The sample was placed in a light-shielding box to avoid interference of external light, and thereafter, MCLA was added to the chamber to the final concentration of […]. Thereafter, light emission generated as a result of the reaction between MCLA (2-methyl-6-(4-methoxyphenyl)-3,7-dihydroimidazol[1,2-a]pyrazin-3-one-hydrochloride) and superoxide anion was measured for 5 minutes. This measurement was repeated 3 times.
The light emission data was served in a computer, and the obtained nonlinear gray scale images were converted into pseudocolor images. The intensity of chemiluminescence due to superoxide was analyzed using WinLight 32 software. The plaque area was defined as an area that was stained with Sudan III. Approximately 10 plaque areas and 10 non-plaque areas ([…]) were randomly selected from each mouse, followed by measurement. The background level was subtracted from each chemiluminescent signal intensity. […] The results are shown as relative values. […]

[4] = tested on: NO from aortic endothelium of ApoE-KO/eNOS-Tg mice; assay: Production of NO in excised aorta (DAF-2 DA fluorescence, acetylcholine stimulated); assay type: in vivo, mouse; conditions: 12-week-old mice, high cholesterol diet for 8 weeks, BH4 administered vs not administered; FIG. 5; p<0.01
From the text: The aorta containing the portion from the aortic arch to the bifurcation portion of the iliac artery was excised from each of 12-week-old mice (ApoE-KO/eNOS-Tg) fed on a high cholesterol diet for 8 weeks. Immediately thereafter, surrounding portions were eliminated in PBS with pH 7.4. The sample was mounted on a black dish filled with a phosphate buffer (pH 7.4) containing 1.5 mmol/L calcium chloride, and it was then placed in a light-shielding box to avoid interference of external light.
Diaminofluorescein-2 diacetate (DAF-2 DA) was added thereto to the final concentration of 10 μmol/L. Then, the sample was left at ambient temperature for 5 minutes, and thereafter, it was excited with 485 nm blue light. The fluorescence generated as a result of the reaction between DAF-2 DA and NO was detected, using a luminograph equipped with a band filter with a center of 532 nm, and measurement was carried out for 1 second at an intensity of wave length of 515 nm. To examine the production of NO from the aortic endothelium, the sample was left in 1 μmol/L acetylcholine solution for 5 minutes, and then the fluorescent image was measured. After completion of each experiment, in order to determine whether the measured sample was a plaque area or non-plaque area, the sample was stained with Sudan III and observed. […]

SMILES: C[C@H](O)[C@H](O)C1CNc2nc(N)[nH]c(=O)c2N1 (stereo partly drawn) [(6R, S)-5,6,7,8-tetrahydrobiopterin]
- toxicity [1]: weak

SMILES: C[C@H](O)[C@H](O)[C@H]1CNc2[nH]c(N)nc(=O)c2N1.Cl.Cl [BH4 dihydrochloride]
- acute toxicity [2]: ≥ 2 g/kg (body weight)
- toxicity (in words) [2]: almost no toxicity is found

SMILES: CC(O)C(O)C1CNc2nc(N)[nH]c(=O)c2N1 [BH4, (6R)-L-erythro-5,6,7,8-tetrahydrobiopterin]
- arteriosclerosis (ApoE-KO/eNOS-Tg mice): suppressed
- lesion area (lesion area/total area of aorta) (ApoE-KO/eNOS-Tg mice; vs non-administration group, p<0.05 male, p<0.01 female): reduced
- production of superoxide in plaque area [3]: significantly reduced
- production of NO in non-plaque area [4]: significantly increased
